Results as given in patent US20080020076A1, “Methods and Therapies for Potentiating a Therapeutic Action of an Alpha-2 Adrenergic Receptor Agonist and Inhibiting and/or Reversing Tolerance to Alpha-2 Adrenergic Receptor Agonists” (priority 2006, published 2008).

Assays:
[1] = test system: alpha-2 adrenergic receptor; assay: acute tolerance to spinal L-norepinephrine analgesia, tail flick test; format: in vivo, rat
Description: (§1) The effect of normal saline (20 μl) was also evaluated by injection at 90 minute intervals. Pain responses were evaluated in the tail flick and paw pressure test at 30 minute intervals.
(§2) Experiments were conducted using adult male Sprague-Dawley rats (Charles River, St. Constant, QC, Canada) weighing between 200-250 grams. Animals were housed individually in standard laboratory cages, maintained on a 12-hour light/dark cycle, and provided with food and water ad libitum. The surgical placement of chronic indwelling intrathecal catheters (polyethylene PE 10 tubing, 7.5 cm) into the spinal subarachnoid space was made under 4% halothane anesthesia, using the method of Yaksh and Rudy Physiol. Behav. 1976 7:1032-1036). Specifically, the anesthetized animal was placed prone in a stereotaxic frame, a small incision made at the back of the neck, and the atlanto-occipital membrane overlying the cisterna magna was exposed and punctured with a blunt needle. The catheter was inserted through the cisternal opening and slowly advanced caudally to position its tip at the lumbar enlargement. The rostral end of the catheter was exteriorized at the top of the head and the wound closed with sutures. Animals were allowed 3-4 days recovery from surgery and only those free from neurological deficits, such as the hindlimb or forelimb paralysis or gross motor dysfunction, were included in the study. All drugs were injected intrathecally as solutions dissolved in physiological saline (0.9%) through the exteriorized portion of the catheter at a volume of 10 μl, followed by a 10 μl volume of 0.9% saline to flush the catheter.
The tail flick test (D'amour & Smith, J. Pharmacol. Exp. Ther. 1941 72:74-79) was used to measure the response to a thermal nociceptive stimulus. Radiant heat was applied to the distal third of the animal's tail and the response latency for tail withdrawal from the source was recorded using an analgesia meter (Owen et al., J. Pharmacol. Methods 1981 6:33-37)). The stimulus intensity was adjusted to yield baseline response latencies between 2-3 seconds. To minimize tail damage, a cutoff of 10 seconds was used as an indicator of maximum antinociception.
(§3) For the in vivo studies, tail flick and paw pressure values were converted to a maximum percentage effect (M.P.E.): M.P.E.=100×[post-drug response−baseline response]/[maximum response−baseline response]. Data represented in the figures are expressed as mean (±S.E.M.). The ED50 values were determined using a non-linear regression analysis (Prism 2, GraphPad Software Inc., San Diego, Calif., USA). Statistical significance (p<0.05, 0.01. or 0.001) was determined using a one-way analysis of variance followed by a Student Newman-Keuls post hoc test for multiple comparisons between groups.

[2] = test system: alpha-2 adrenergic receptor; assay: paw pressure test (mechanical antinociception), intrathecal drugs; format: in vivo, rat
Description: as §2
(§4) The paw pressure test (Loomis et al., Pharm. Biochem. 1987 26:131-139) was used to measure the response to a mechanical nociceptive stimulus. Pressure was applied to the dorsal surface of the hind paw using an inverted air-filled syringe connected to a gauge and the value at which the animal withdrew its paw was recorded. A maximum cutoff pressure of 300 mmHg was used to avoid tissue damage.
A single injection of clonidine was administered intrathecally and the response measured in the tail flick and paw pressure test. […] Following drug administration, nociceptive testing was performed every 10 minutes for the first 60 minutes and every 30 minutes for the following 120-150 minute period. Results for atipemazole are depicted in FIG. 1A (tail flick) and FIG. 1B (paw pressure).
as §3

[3] = test system: alpha-2 adrenergic receptor; assay: tail flick test (thermal antinociception), intrathecal drugs; format: in vivo, rat
[4] = test system: alpha-2 adrenergic receptor; assay: acute tolerance to spinal L-norepinephrine analgesia, paw pressure test; format: in vivo, rat
Description: as §1, §2, §4, §3

[5] = test system: alpha-2 adrenoceptors; settings: versus yohimbine; cited from earlier work
[6] = test system: alpha-2 adrenergic receptor; assay: tail flick test (thermal antinociception), intrathecal drugs; format: in vivo, rat; remark: listed apart in the source
Description: as §2, with “Animals were allowed 3-4 days recovery from surgery and only those free from neurological deficits, such as the hindlimb or forelimb paralysis or gross motor dysfunction, were included in the study. All drugs were injected intrathecally as solutions dissolved in physiological saline (0.9%) through the exteriorized portion of the catheter at a volume of 10 μl, followed by a 10 μl volume of 0.9% saline to flush the catheter.” left out
The tail flick test (D'amour & Smith, J. Pharmacol. Exp. Ther. 1941 72:74-79) was used to measure the response to a thermal nociceptive stimulus. Radiant heat was applied to the distal third of the animal's tail and the response latency for tail withdrawal from the source was recorded using an analgesia meter (Owen et al., J. Pharmacol. Methods 1981 6:33-37)). […]
A single injection of clonidine was administered intrathecally and the response measured in the tail flick and paw pressure test. […]
as §3

[7] = 24 hours after three successive injections of norepinephrine alone
[8] = norepinephrine alone, 30 μg x3 at 90 minute intervals
[9] = single spinal dose of norepinephrine (30 μg), alone
[10] = yohimbine 0.0002, 0.005 and 0.02 ng with clonidine 50 nmoles (13.3 μg) intrathecal
[11] = 24 hours after treatment, atipemazole 0.008 or 0.8 ng combined with norepinephrine
[12] = atipemazole 0.8 ng with L-norepinephrine 30 μg, three intrathecal injections at 90 minute intervals
[13] = atipemazole 0.008 or 0.8 ng combined with norepinephrine, x3, 24 hours after
[14] = combination of norepinephrine 30 μg and atipemazole 0.8 ng, x3 at 90 minute intervals
[15] = atipemazole 0.08 ng with L-norepinephrine 30 μg intrathecal
[16] = atipemazole 0.0008, 0.008 and 0.08 ng with clonidine 50 nmoles intrathecal
[17] = atipemazole 1, 5, 10 μg co-administered with clonidine 200 nmoles intrathecal
[18] = clonidine 50 nmoles (13.3 μg) intrathecal, alone
[19] = clonidine 50 nmoles (13.3 μg) intrathecal, alone, listed as Clonidine
[20] = clonidine 200 nmoles intrathecal, alone

Q: Which “L-norepinephrine ED50 versus saline control group” value [1, 7] does the source give for `NC[C@H](O)c1ccc(O)c(O)c1` [norepinephrine, L-norepinephrine] here?
A: increased significantly

Q: What about the “analgesic response at 240 minutes, after the third dose” value (“analgesic response at 240 minutes” for short) [1, 8] of the same compound?
A: significantly declined towards pre-drug baseline value

Q: And the “time at which analgesia terminated” value [2, 9]?
A: 180 min

Q: What about the “time of peak analgesia” value [2, 9] of the same compound?
A: 30 min

Q: And the “time at which analgesia terminated” value [3, 9]?
A: 180 min

Q: And the “time of peak analgesia” value [3, 9]?
A: 30 min

Q: What about the “L-norepinephrine ED50 versus saline control group” value [4, 7] of the same compound?
A: increased significantly

Q: And the “analgesic response at 240 minutes” value [4, 8]?
A: significantly declined towards pre-drug baseline value

Q: With `COC(=O)[C@@H]1[C@H]2C[C@H]3c4[nH]c5ccccc5c4CCN3C[C@@H]2CC[C@@H]1O` [yohimbine] as the compound, how does the “effect on clonidine analgesic response” value [2, 10] read?
A: significantly augmented

Q: What about the “effect on clonidine analgesic response” value [3, 10] of the same compound?
A: significantly augmented

Q: For `CCC1(c2cnc[nH]2)Cc2ccccc2C1` [atipemazole], which “rightward shift of the L-norepinephrine cumulative dose-response curve” value [1, 11] is on record?
A: prevented

Q: And the “effect on decline of norepinephrine analgesia on repeated injection” value [1, 12]?
A: inhibited the decline of norepinephrine analgesia

Q: And the “effect on increase of L-norepinephrine ED50” value [1, 13]?
A: completely prevented the increase in ED50 values

Q: And the “analgesic response at 240 minutes” value [1, 14]?
A: sustained the maximal analgesic level

Q: What about the “potency as a displacer of clonidine relative to yohimbine” value [5] of the same compound?
A: about 100 times

Q: And the “effect on norepinephrine analgesia” value [2, 15]?
A: extended norepinephrine analgesia

Q: What about the “effect on clonidine analgesic response” value [2, 16] of the same compound?
A: significantly augmented

Q: And the “effect on clonidine response” value [2, 17]?
A: decreased clonidine response in the paw pressure test but only at the highest dose

Q: And the “effect on norepinephrine analgesia” value [3, 15]?
A: extended norepinephrine analgesia

Q: And the “effect on clonidine analgesic response” value [3, 16]?
A: significantly augmented

Q: And the “effect on peak clonidine analgesia” value ([6]; atipemazole 10 μg (highest dose) with clonidine 200 nmoles intrathecal)?
A: almost abolishing the response

Q: And the “effect on peak clonidine analgesia” value [6, 17]?
A: dose-related decrease

Q: And the “dose antagonizing the analgesic action of clonidine” value ([6]; intrathecal, co-administered with clonidine 200 nmoles)?
A: greater than 1 microgram

Q: What about the “rightward shift of the L-norepinephrine cumulative dose-response curve” value [4, 11] of the same compound?
A: prevented

Q: And the “effect on decline of norepinephrine analgesia on repeated injection” value [4, 12]?
A: inhibited the decline of norepinephrine analgesia

Q: And the “effect on increase of L-norepinephrine ED50” value [4, 13]?
A: completely prevented the increase in ED50 values

Q: What about the “analgesic response at 240 minutes” value [4, 14] of the same compound?
A: sustained the maximal analgesic level

Q: Which analgesic response [2, 18] does the source give for `Clc1cccc(Cl)c1N=C1NCCN1` [clonidine] here?
A: submaximal analgesic response

Q: And the analgesic response [2, 19]?
A: submaximal analgesia

Q: And the analgesic response [2, 20]?
A: a lesser effect

Q: And the analgesic response [3, 18]?
A: submaximal analgesic response

Q: What about the analgesic response [3, 19] of the same compound?
A: submaximal analgesia

Q: What about the analgesic response [3, 20] of the same compound?
A: maximal analgesic response
